We go through 18 compounds from patent US10793568B2, “Hormone receptor modulators for treating metabolic conditions and disorders” (ARDELYX, INC., priority 2016, dated 2020).

SMILES strings stand for the structures. A value given as a limit tells only on which side of the number the result lay.

Assay [1] has as its target ligand binding domain of human FXR (Homo sapiens (Human), UniProt Q96RI1). Nature of the assay: FXR ligand binding assay (LanthaScreen TR-FRET, SRC2-2 peptide recruitment). As to conditions: for Emax: extent of activation relative to GW4064, read-out: % Efficacy. For orientation: TR-FRET usually uses a lanthanide donor and a delayed reading to cut background.
For assay [2], the target named is human Farnesoid X receptor ligand-binding domain/Gal4 DNA binding domain chimera (Homo sapiens (Human), UniProt Q96RI1). Put plainly: Cell-based assay of FXR activation (FXR-UAS-bla HEK 293T beta-lactamase reporter). As to conditions: cellular FXR beta-lactamase reporter assay; for Emax: HEK-293T, extent of activation relative to GW4064, read-out: % Efficacy; for EC50: FXR-UAS-bla HEK 293T cells, 16 h, pEC50 = -log EC50. The gist of the method:
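HEK 293T cells stably expressing a Gal4-fused human FXR LBD and a UAS-driven beta-lactamase reporter were incubated with serially diluted compounds for 16 h at 37 °C in phenol red-free DMEM with 2% charcoal-stripped FBS. CCF4 FRET read-out: excitation 409 nm, emission 447 nm. pEC50 comes from a 3-parameter logistic fit, and efficacy is given as % of GW4064.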
On the technique in general: Reporter assays use an easily measured gene product as a stand-in for the process of interest.

Setting [3] is: -log EC50, concentration required to produce 50% activation.

What is called pEC50 is the negative decadic logarithm of the EC50, by convention in mol/L. Low readings indicate a large EC50, high ones a small EC50.

Chain of human Farnesoid X receptor ligand-binding domain/Gal4 DNA binding domain chimera (Q96RI1 262-486, change not shown): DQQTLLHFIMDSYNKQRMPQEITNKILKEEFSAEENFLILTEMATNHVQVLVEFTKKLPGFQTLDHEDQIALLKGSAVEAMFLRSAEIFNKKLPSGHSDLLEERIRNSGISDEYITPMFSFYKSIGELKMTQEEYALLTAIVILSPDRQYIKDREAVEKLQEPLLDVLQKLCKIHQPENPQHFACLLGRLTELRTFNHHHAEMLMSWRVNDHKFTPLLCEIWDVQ
Chain of human Farnesoid X receptor ligand-binding domain/Gal4 DNA binding domain chimera (P04386 1-147 partner): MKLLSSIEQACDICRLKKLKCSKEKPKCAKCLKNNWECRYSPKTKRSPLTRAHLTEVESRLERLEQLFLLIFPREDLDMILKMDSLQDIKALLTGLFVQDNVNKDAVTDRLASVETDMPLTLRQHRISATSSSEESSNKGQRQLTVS
Chain of ligand binding domain of human FXR (Q96RI1 262-486): as the sequence (Q96RI1 262-486, change not shown) above

`O=C(O)c1cc(C2CC2)c2nc(N3C[C@@H]4C[C@H]3C[C@H]4OC(=O)c3c(-c4c(Cl)cccc4Cl)noc3C3CC3)sc2c1` [Compound I-4, 4-cyclopropyl-2-[(1S,4S,5R)-5-[5-cyclopropyl-3-(2,6-dichlorophenyl)-1,2-oxazole-4-carbonyloxy]-2-azabicyclo[2.2.1]heptan-2-yl]-1,3-benzothiazole-6-carboxylic acid] yielded a negative logarithm of the EC50 (pEC50) in assay [1] (setting [3]) of 7.3. The Emax in assay [1] was found to be 166%. For the same compound, in assay [2], the Emax was 112% and the EC50 is 3.16 nM.

Take `Cc1cccc(Cl)c1-c1noc(C2CC2)c1CO[C@@H]1C[C@@H]2C[C@H]1CN2c1ccc(C(=O)O)cc1` [Compound I-114, 4-[(1S,4S,5R)-5-{[3-(2-chloro-6-methylphenyl)-5-cyclopropyl-1,2-oxazol-4-yl]methoxy}-2-azabicyclo[2.2.1]heptan-2-yl]-benzoic Acid]: in assay [1], the Emax was 124%. In addition, in assay [2], the Emax was found to be 103% and the EC50 was 2.51 nM.

Regarding `O=C(NS(=O)(=O)C1CC1)c1ccc(N2C[C@@H]3C[C@H]2C[C@H]3OCc2c(-c3c(Cl)cccc3Cl)noc2C2CC2)cc1` [Compound I-60, N-(cyclopropanesulfonyl)-4-[(1S,4S,5R)-5-[[5-cyclopropyl-3-(2,6-dichlorophenyl)-1,2-oxazol-4-yl]methoxy]-2-azabicyclo[2.2.1]heptan-2-yl]benzamide], the pEC50 in assay [1] (setting [3]) is 8.2. Further, the values for the Emax in assay [1] and in assay [2] were 170% and 105%, respectively. In assay [2], the EC50 was 0.2 nM.

Compound `O=S(=O)(O)c1ccc(N2C[C@@H]3C[C@H]2C[C@H]3OCc2c(-c3c(Cl)cccc3Cl)noc2C2CC2)cc1` [Compound I-144, 4-[(1S,4S,5R)-5-{[5-cyclopropyl-3-(2,6-dichlorophenyl)-1,2-oxazol-4-yl]methoxy}-2-azabicyclo[2.2.1]heptan-2-yl]benzene-1-sulfonic Acid] yielded a pEC50 in assay [1] (setting [3]) of 8.2. The Emax in assay [1] turned out to be 128%. In assay [2], this compound showed an EC50 of under 31.6 nM.

In turn, `O=C(O)CNC(=O)c1ccc(N2C(=O)[C@@H]3C[C@H]2C[C@H]3OCc2c(-c3c(Cl)cccc3Cl)noc2C2CC2)cc1` [Compound I-358, 2-({4-[(1S,4R,5R)-5-{[5-cyclopropyl-3-(2,6-dichlorophenyl)-1,2-oxazol-4-yl]methoxy}-3-oxo-2-azabicyclo[2.2.1]heptan-2-yl]phenyl}formamido)acetic Acid] displayed a pEC50 in assay [1] (setting [3]) of 8. Besides, the Emax in assay [1] worked out at 155%. In assay [2], the Emax was 124% and the EC50 was 631 nM.

In assay [1] (setting [3]), `O=C(O)c1cc(O[C@H]2CCOC2)c2nc(N3C[C@@H]4C[C@H]3C[C@H]4OCc3c(-c4c(F)cccc4Cl)noc3C3CC3)sc2c1` [Compound I-267, 2-((1S,4S,5R)-5-((3-(2-chloro-6-fluorophenyl)-5-cyclopropylisoxazol-4-yl)methoxy)-2-azabicyclo[2.2.1]heptan-2-yl)-4-(((S)-tetrahydrofuran-3-yl)oxy)benzo[d]thiazole-6-carboxylic acid] had a negative-log EC50 (pEC50) of 8.6. Besides, the Emax in assay [1] came to 146%. In addition, in assay [2], the Emax turned out to be 102% and the EC50 was 1 nM.

In turn, `CCCS(=O)(=O)NC(=O)c1ccc(N2C[C@@H]3C[C@H]2C[C@H]3OCc2c(-c3c(Cl)cccc3Cl)noc2C2(F)CC2)c(F)c1` [Compound I-198, 4-((1S,4S,5R)-5-((3-(2,6-dichlorophenyl)-5-(1-fluorocyclopropyl)isoxazol-4-yl)methoxy)-2-azabicyclo[2.2.1]heptan-2-yl)-3-fluoro-N-(propylsulfonyl)benzamide] returned a negative logarithm of the EC50 (pEC50) in assay [1] (setting [3]) of 8.5. Moreover, the Emax in assay [1] is 178%. In addition, in assay [2], the Emax was 112% and the EC50 is 0.501 nM.

For the compound `O=C(O)c1cc(C2CCOC2)c2nc(N3C(=O)[C@@H]4C[C@H]3C[C@H]4OCc3c(-c4c(Cl)cccc4Cl)noc3C3CC3)sc2c1` (stereo partly drawn) [Compound I-299, 2-((1S,4R,5R)-5-((5-cyclopropyl-3-(2,6-dichlorophenyl)isoxazol-4-yl)methoxy)-3-oxo-2-azabicyclo[2.2.1]heptan-2-yl)-4-(tetrahydrofuran-3-yl)benzo[d]thiazole-6-carboxylic acid], the pEC50 in assay [1] (setting [3]) is listed as 8. Also, the Emax in assay [1] was 112%. Moreover, in assay [2], the Emax worked out at 108% and the EC50 is 3.98 nM.

In the case of `N#Cc1c(F)cc(N2C[C@@H]3C[C@H]2C[C@H]3OCc2c(-c3c(Cl)cccc3Cl)noc2C2CC2)cc1F` [Compound I-133, 4-[(1S,4S,5R)-5-{[5-cyclopropyl-3-(2,6-dichlorophenyl)-1,2-oxazol-4-yl]methoxy}-2-azabicyclo[2.2.1]heptan-2-yl]-2,6-difluorobenzonitrile], the pEC50 in assay [1] (setting [3]) came out at 7.4. For the same compound, the Emax turned out to be 79% in assay [1] and 106% in assay [2]. Also, the EC50 in assay [2] was under 39.8 nM.

Take `O=C(O)c1cc(F)c(N2C[C@@H]3C[C@H]2C[C@H]3OCc2c(-c3c(Cl)cccc3Cl)noc2C2CC2)c(F)c1` [Compound I-54, 4-[(1S,4S,5R)-5-{[5-cyclopropyl-3-(2,6-dichlorophenyl)-1,2-oxazol-4-yl]methoxy}-2-azabicyclo[2.2.1]heptan-2-yl]-3,5-difluorobenzoic Acid]: the EC50 was 1.58 nM in assay [1] (setting [3]) and 0.316 nM in assay [2]. Further, the Emax in assay [1] was 158%; in assay [2], 101%.

As to `O=C(O)c1cc(F)c2nc(N3C[C@@H]4C[C@H]3C[C@H]4OCc3c(-c4c(Cl)cc(O)cc4Cl)noc3C3CC3)sc2c1` [Compound I-287, 2-[(1S,4S,5R)-5-{[5-cyclopropyl-3-(2,6-dichloro-4-hydroxyphenyl)-1,2-oxazol-4-yl]methoxy}-2-azabicyclo[2.2.1]heptan-2-yl]-4-fluoro-1,3-benzothiazole-6-carboxylic Acid], in assay [1] (setting [3]), the negative-log EC50 (pEC50) is given as 9.2. Further, the Emax in assay [1] worked out at 134%. In assay [2], the Emax turned out to be 113% and the EC50 is 63.1 nM.

Turning to `O=C(O)c1ccc(N2C(=O)[C@@H]3C[C@H]2C[C@H]3OCc2c(-c3c(Cl)cccc3Cl)noc2C2CC2)cc1C1CC1` [Compound I-319, 2-cyclopropyl-4-[(1S,4R,5R)-5-{[5-cyclopropyl-3-(2,6-dichlorophenyl)-1,2-oxazol-4-yl]methoxy}-3-oxo-2-azabicyclo[2.2.1]heptan-2-yl]benzoic Acid], the pEC50 in assay [1] (setting [3]) is given as 7.4. Also, the Emax in assay [1] was 118%. For the same compound, in assay [2], the Emax turned out to be 113% and the EC50 is 10 nM.

For the compound `Cn1nc(C(=O)NS(=O)(=O)C2CC2)cc1N1C[C@@H]2C[C@H]1C[C@H]2OCc1c(-c2c(Cl)cccc2Cl)noc1C1CC1` [Compound I-233, N-(cyclopropanesulfonyl)-5-[(1S,4S,5R)-5-{[5-cyclopropyl-3-(2,6-dichlorophenyl)-1,2-oxazol-4-yl]methoxy}-2-azabicyclo[2.2.1]heptan-2-yl]-1-methyl-1H-pyrazole-3-carboxamide], the negative-log EC50 (pEC50) in assay [1] (setting [3]) turned out to be 7.8. Moreover, the Emax in assay [1] is 77%. The compound also had an EC50 in assay [2] of under 31.6 nM.

Take `CCc1cc(C(=O)O)cc2sc(N3C[C@@H]4C[C@H]3C[C@H]4OCc3c(-c4c(Cl)cccc4Cl)noc3C3CC3)nc12` [Compound I-246, 2-[(1S,4S,5R)-5-{[5-cyclopropyl-3-(2,6-dichlorophenyl)-1,2-oxazol-4-yl]methoxy}-2-azabicyclo[2.2.1]heptan-2-yl]-4-ethyl-1,3-benzothiazole-6-carboxylic Acid]: the pEC50 in assay [1] (setting [3]) is given as 8.5. Moreover, the Emax in assay [1] came out at 136%. In addition, in assay [2], the Emax was found to be 113% and the EC50 is 0.251 nM.

Consider `O=C(NS(=O)(=O)CCC1CCOC1)c1ccc(N2C(=O)[C@@H]3C[C@H]2C[C@H]3OCc2c(-c3c(Cl)cccc3Cl)noc2C2CC2)cc1F` (stereo partly drawn) [Compound I-336, 4-((1S,4R,5R)-5-((5-cyclopropyl-3-(2,6-dichlorophenyl)isoxazol-4-yl)methoxy)-3-oxo-2-azabicyclo[2.2.1]heptan-2-yl)-2-fluoro-N-((2-(tetrahydrofuran-3-yl)ethyl)sulfonyl)benzamide], for which the pEC50 in assay [1] (setting [3]) is on record as 8.6. For the same compound, the Emax in assay [1] is 182%. Also, in assay [2], the Emax came to 125% and the EC50 is 2.51 nM.

Regarding `O=C(O)c1ccc(N2C(=O)[C@@H]3C[C@H]2C[C@H]3OCc2c(-c3c(F)cccc3Cl)noc2C2CC2)cc1` [Compound I-306, 4-[(1S,4R,5R)-5-{[3-(2-chloro-6-fluorophenyl)-5-cyclopropyl-1,2-oxazol-4-yl]methoxy}-3-oxo-2-azabicyclo[2.2.1]heptan-2-yl]benzoic Acid], the negative logarithm of the EC50 (pEC50) in assay [1] (setting [3]) came to 8.2. The Emax in assay [1] stood at 171%. In assay [2], the Emax came out at 108% and the EC50 is 2.51 nM.

`O=C(O)c1nnc(N2C[C@@H]3C[C@H]2C[C@H]3OCc2c(-c3c(Cl)cccc3Cl)noc2C2CC2)s1` [Compound I-178, 5-[(1S,4S,5R)-5-{[5-cyclopropyl-3-(2,6-dichlorophenyl)-1,2-oxazol-4-yl]methoxy}-2-azabicyclo[2.2.1]heptan-2-yl]-1,3,4-thiadiazole-2-carboxylic Acid] had a negative-log EC50 (pEC50) in assay [1] (setting [3]) of 6.9. In addition, the Emax was 86% in assay [1] and 70% in assay [2]. In addition, in assay [2], the EC50 is 158 nM.

In assay [1] (setting [3]), `CC(C)CCS(=O)(=O)NC(=O)c1ccc(N2C[C@@H]3C[C@H]2C[C@H]3OCc2c(-c3c(Cl)cccc3Cl)noc2C2CC2)c(F)c1` [Compound I-190, 4-((1S,4S,5R)-5-((5-cyclopropyl-3-(2,6-dichlorophenyl)isoxazol-4-yl)methoxy)-2-azabicyclo[2.2.1]heptan-2-yl)-3-fluoro-N-(isopentylsulfonyl)benzamide] gave a pEC50 of 8.4. Further, the Emax in assay [1] was determined as 163%. In assay [2], the Emax came to 113% and the EC50 was 0.0631 nM.
